From US7884262B2, “Modified DMO enzyme and methods of its use” (Monsanto Technology LLC, priority 2006, dated 2011)
“And” between values parts separate entries of the source, which are not always exact repeats. Equal values may be shown once. “Also recorded” adds a separate entry of the source. Read-outs that look alike come from different tables or passages of the source.

Assays:
[1] = test system: nontransgenic tobacco plants; conditions: for Herbicide damage symptoms: spray
Source text: (§1) Plants in the greenhouse were sprayed with solvent and commercial grade dicamba (Clarity; BASF) using a compressed air, motor-driven, track sprayer with a flat-fan 8002E nozzle traveling at 1.87 mph. Additives included; 28% urea ammonium nitrate at 1.25% v/v and nonionic surfactant at 1.0% v/v. The solution containing dicamba at various concentrations was applied at 182 L/ha ([…]). Soybean field plantings were sprayed with Clarity herbicide at 2.8 kg/ha (2.5 lb/ac).
(§2) In this study, the concentration of dicamba employed provided a dose of 1.12 kg/ha. […] In this study, treatments were compared using 2.2 kg/ha dicamba on two T1 tobacco plants, one carrying DMOc lacking a chloroplast transit peptide and the other completely lacking the DMOc gene due to genetic segregation.

[2] = test system: homoplastidic transgenic tobacco plants containing a chloroplast-encoded dicamba monooxygenase gene
transgenic soybean lines = test system: transgenic soybean lines
Source text: (§3) Tobacco, tomato, soybeans and Arabidopsis were used for transgenic expression of the genetically engineered DMOc gene and confirmation of dicamba tolerance in plants expressing the gene. The DMOc coding sequence in binary vector pKLP36 was introduced into A. tumefaciens strain C58C1 containing the disarmed Ti plasmid pMP90 (Koncz and Schell, 1986) by triparental mating (Ditta 1980). The resultant transconjugants were used for tobacco (cv Xanthi) and tomato (cv Rutgers) transformation using the leaf disc protocol described by Horsch et al. (Horsch 1985). Arabidopsis thaliana was transformed by the floral dip technique (Clough and Bent, 1998). Transformation of soybean varieties Thorne and NE-3001 was carried out by cotyledonary-node Agrobacterium-mediated transformation system (Zhang et al., 1999).
as §1

[3] = test system: Arabidopsis thaliana expressing the DMOc gene; conditions: 1.12 kg/ha
Source text: as §3, §1, §2

[4] = test system: Transgenic tomato plants carrying the genetically engineered DMOc gene; conditions: first 0.56 kg/ha and subsequently 5.6 kg/ha
Source text: as §3, §1, §2

[5] = test system: DMOc-containing transgenic tobacco plants
Source text: as §3, §1, §2

[6] = DMO activity assay (DCSA formation by HPLC), steady state kinetics, pH and temperature optimum; assay type: biochemical
Procedure: Protein concentrations were determined by Bradford assay with rabbit IgG as standard. Proteins were separated by SDS-PAGE and stained with Coomassie Blue. DMO activity was measured by following the formation of DCSA which was separated by HPLC (Waters Corporation, Milford, Mass.) by using a Discovery C18 column (Supelco, Sigma-Aldrich, St. Louis, Mo.). The retention time for DCSA was 8 minutes and for dicamba was 9.5 minutes. For kinetic studies the DCSA was detected and quantified by fluorescence emission at 420 nm (excitation wavelength 310 nm) after separation on the HPLC column from reaction mixture. Set concentrations of DCSA (12 and 24 μM) were used as quantification standards.
Stock solution of dicamba (100, 200, 400, 800, 1000, 2000, 5000, and 10000 μM), 0.1 M KPi pH 7.2, 0.1 M FeSO4, 0.1 M NADH, and 1 M MgCl2 were used. The assays were performed at 30° C. for 20 minutes and the reaction was quenched by addition of 40 μl of H2SO4. For activity measurements DMO was coupled with an excess of purified ferredoxin and reductase from P. maltophilia strain DI-6.
Since the assay for DMO activity was a discontinuous assay, it was important to establish the time for which the assay has to be run in order to obtain meaningful kinetic parameters. The assay thus has to be run under initial condition as the amount of DCSA produced is linear for the time the assay is being run (FIG. 4). […] (FIG. 6).
The Michaelis-Menten parameters were determined by fitting the data to a nonlinear steady-state equation (Equation 1). The data were analyzed using Sigma plot 8.0 (Jandel Scientific). Vo=Vmax*[S]/(Km+[S]) Equation 1
The optimum pH and temperature were also determined for DMOw and DMOc. Optimum pH was measured at 30° C. for 20 minutes and optimum temperature determination was measured also for 20 minutes at pH 7.2 for both forms of the enzyme. The results are summarized in FIGS. 7-9 and are discussed below.

[7] = steady state, substrate dicamba
[8] = steady state, substrate dicamba, 30° C., 20 minutes

## COc1c(Cl)ccc(Cl)c1C(=O)O [dicamba, 3,6-dichloro-o-anisic acid]
[1]; 0.017 kg/ha
  Herbicide damage symptoms: easily detected
[1]; 0.28 kg/ha
  Herbicide damage symptoms: quite severe
[1]; 0.56 kg/ha
  Herbicide damage symptoms: quite severe
[1]; 2.2 kg/ha, T1 plant lacking the DMOc gene due to genetic segregation
  damage caused by dicamba treatment: fully susceptible
[1]; 5.6 kg/ha, post-emergence, nontransgenic plant
  damage: severe damage
[2]; 28 kg/ha (25 lb/ac), T1-T3 progeny
  damage: no apparent damage
[2]; 112 kg/ha
  damage: only transitory damage
[2]; 224 kg/ha
  damage: only transitory damage
[2]; DMOc gene in chloroplast genome
  dicamba tolerance level: at least 28 kg/ha
Transgenic soybean lines; 2.8 kg/ha (highest level tested), two years of field trials
  tolerance: strong tolerance
Transgenic soybean lines; 2.8 kg/ha, greenhouse, most lines
  tolerance: significant tolerance
Transgenic soybean lines; 5.6 kg/ha, greenhouse, most lines
  tolerance: significant tolerance
Transgenic soybean lines; DMOc in nuclear genome of soybean plants
  dicamba treatment level tolerated: 2.8 kg/ha
[3]
  tolerance: strong tolerance
[4]
  damage: no damage
[5]; 5.6 kg/ha, post-emergence
  symptoms: few, if any symptoms
[5]; transgenic tobacco expressing DMOc
  dicamba treatment level tolerated: ≥ 5.6 kg/ha

B1: DMOc: dicamba monooxygenase (DMO) variant comprising a cysteine at position 112 of SEQ ID NO:1 (protein)
chain: MATFVRNAWYVAALPEELSEKPLGRTILDTPLALYRQPDGVVAALLDICPHRFAPLSDGILVNGHLQCPYHGLEFDGGGQCVHNPHGNGARPASLNVRSFPVVERDALIWICPGDPALADPGAIPDFGCRVDPAYRTVGGYGHVDCNYKLLVDNLMDLGHAQYVHRANAQTDAFDRLEREVIVGDGEIQALMKIPGGTPSVLMAKFLRGANTPVDAWNDIRWNKVSAMLNFIAVAPEGTPKEQSIHSRGTHILTPETEASCHYFFGSSRNFGIDDPEMDGVLRSWQAQALVKEDKVVVEAIERRRAYVEANGIRPAMLSCDEAAVRVSREIEKLEQLEAA
[6]; DMOc vs DMOw
  catalytic efficiency relative to DMOw: five times better enzyme than DMOw; also recorded: five times more efficient than DMOw
[6]; DMOc, Study no. 1-2
  Km: 21 µM and 20 µM
  Vmax: 713 ± 43 nmol/min/mg and 676 ± 37 nmol/min/mg
[6]; Michaelis-Menten parameters
  Km: 20.5 ± 5 µM
  Vmax: 676 ± 37 nmol/min/mg
[6]; [7]
  Vmax: 676 ± 37 × 10^−3 U/mg
  kcat: 70.41 s⁻¹
[6]; [8]
  Km: 20 µM

B2: DMOw: unaltered (wild type) dicamba monooxygenase sequence from Pseudomonas maltophilia, strain DI-6; U.S. Pat. No. 7,022,896 (protein, UniProt Q5S3I3 2-339, looked up)
Dicamba O-demethylase, …: TFVRNAWYVAALPEELSEKPLGRTILDTPLALYRQPDGVVAALLDICPHRFAPLSDGILVNGHLQCPYHGLEFDGGGQCVHNPHGNGARPASLNVRSFPVVERDALIWIWPGDPALADPGAIPDFGCRVDPAYRTVGGYGHVDCNYKLLVDNLMDLGHAQYVHRANAQTDAFDRLEREVIVGDGEIQALMKIPGGTPSVLMAKFLRGANTPVDAWNDIRWNKVSAMLNFIAVAPEGTPKEQSIHSRGTHILTPETEASCHYFFGSSRNFGIDDPEMDGVLRSWQAQALVKEDKVVVEAIERRRAYVEANGIRPAMLSCDEAAVRVSREIEKLEQLEAA
[6]; 0.1 M Kpi buffer, 30° C., 20 minutes
  optimum pH for the assay: 7.2
[6]; DMOw, Study no. 1-3
  Km: 49 µM and 46 µM
  Vmax: 633 ± 24 nmol/min/mg and 583 ± 18 nmol/min/mg and 590 ± 19 nmol/min/mg
[6]; Michaelis-Menten parameters
  Km: 49 ± 7 µM
  Vmax: 633 ± 24 nmol/min/mg
[6]; pH 7.2, 20 minutes
  optimum temperature: approximately 37 °C
[6]; [7]
  Vmax: 633 ± 24 × 10^−3 U/mg
  kcat: 36.63 s⁻¹
[6]; [8]
  Km: 49 µM
